System: Amb a 1-specific T cell lines (TCL)
Experiment: T cell epitope mapping of Amb a 1.3: proliferation (3H-thymidine uptake) of TCL stimulated with synthetic peptides
Type: cell-based, human
Conditions: for No. positive patients SI > 3 / No. positive patients SI > 5 / % (positive patients SI > 3) / % (positive patients SI > 5): TCL from 48 ragweed pollen-allergic patients, peptide 5 μg/ml; for No. positive patients SI > 3 / No. positive patients SI > 5: 3H-thymidine uptake after 48 hrs; for No. positive patients SI > 3 / % (positive patients SI > 3): stimulation index > 3; for No. positive patients SI > 5 / % (positive patients SI > 5): stimulation index > 5; for T cell activating region recognized by % of patients: classes of prevalence referring to SI>5, 48 TCL
Text: The T cell response to Amb a 1 was characterized in detail using the established in vitro culture system (Jahn-Schmid et al., J. Immunol. 169: 6005-11, 2002; Jahn-Schmid et al., J. Allergy Clin. Immunol., 115: 399-404, 2005). In total, 85 clinically well-defined patients (75 from Vienna/10 from Milano) with typical case history, positive skin prick test and CAP/RAST tests for ragweed extract were included.
Peripheral blood mononuclear cells (PBMC) were isolated from heparinized blood of allergic patients by Ficoll density gradient centrifugation. To generate allergen-specific T cell lines (TCL) and T cell clones (TCC), 1.5×10^6 PBMC were stimulated with optimal doses of ragweed or mugwort extract (4 μg/ml) or rAmb a 1.3 (10 μg/ml) in 24-well flat-bottomed culture plates (Costar, USA). After 5 days human rIL-2 (10 U/ml, Boehringer, Mannheim, Germany) were added and cultures were continued for additional 7 days. Then, T cell blasts were isolated by density centrifugation. The majority of T cell blasts was further expanded with IL-2 and irradiated PBMC. A small number of T cell blasts were used to establish monoclonal T cell cultures by limiting dilution: 0.3 T cells/well were seeded into 96 well round bottom plates (Nunclone) in the presence of 2×10^5 irradiated (60 Gy) PBMC, 0.25% v/v PHA (Gibco, USA) and rIL-2 (4 U/well) in the medium mentioned above. After 14-21 days, growing microcultures were expanded at weekly intervals with irradiated PBMC and rIL-2. The specificity of TCC was assessed in proliferation assays using irradiated allogeneic or HLA-matched PBMC or irradiated EBV-transformed allogeneic B-cells and 5 μg/ml Amb a 1.3. After 48 hours, cellular uptake of tritiated (^3H)-thymidine was performed to measure proliferation in counts per minute (cpm). When the stimulation index (SI; ratio between cpm obtained in cultures containing TCC plus autologous APC plus antigen, and cpm obtained in cultures containing TCC and APC alone) was >10, responses were considered as positive. Allergen-specific TCC were expanded by alternating turns of stimulation with autologous irradiated APC and allergen or with allogeneic feeder cells and rIL-2.
Amb a 1-specific TCL and TCC were used to identify T cell epitopes of Amb a 1.3. T cell cultures were stimulated with a panel of 121 synthetic 12-mer peptides and one 13-mer representing the C-terminal peptide of Amb a 1.3 (Pepset, Biotrend, Germany). Peptides had been synthesized according to the Amb a 1.3 amino acid sequence and overlapped for 9 amino acid residues with the neighbouring peptides (Table 1). Peptides were used at a concentration of 5 μg/ml for stimulation and proliferation of T cell cultures was determined after 48 hrs by ^3H-thymidine-uptake. Because of the frequently observed high background caused by auto-reactivity in TCL, the mean of the cpm observed with the ten least stimulating peptides (none of the peptides was toxic) was used as negative control in calculations of SI. Throughout this manuscript, a peptide comprised one T cell epitope when the stimulation index was at least 3.0.
T cell epitope mapping of Amb a 1.3 was performed evaluating 48 TCL from different patients ([…]), which had been initiated with ragweed extract (containing the natural allergen) or rAmb a 1.3 (Table 2). TCL induced with either ragweed extract or rAmb a 1.3 from the same individual recognized similar T cell epitopes (Table 2; FIG. 7). […] Therefore, their data were combined for further analysis (Table 3). Typical for many inhalant allergens, multiple T cell activating regions were detected in Amb a 1.3. The number of peptides recognized by T cells from a single individual ranged from 2 to maximum 60 peptides with a mean of 17.8 peptides (median=16/for SI>3; resp. 0-36/11.9/12 for SI>5) (see Table 3). In total, 26 relevant (i.e. recognized by ≧10% of patients studied) T cell activating regions comprising 12-18 aa were identified. […]

Row | Sequence | No. positive patients SI > 3 | No. positive patients SI > 5 | % (positive patients SI > 3) [%] | % (positive patients SI > 5) [%] | reactivity with T cells isolated from allergic individuals | T cell activating region recognized by % of patients | T cell reactivity with samples from individuals suffering from ragweed pollen allergy
1 | AAAQNRPLWIIF (Amb a 1 fragment) [Peptide 29] | 4 | 3 | 8.3 | 6.3 | – | – | –
2 | AEPGEAAIKLTS (Amb a 1 fragment) [Peptide 117] | 4 | 3 | 8.3 | 6.3 | – | – | –
3 | AIKLTSSAGVLS (Amb a 1 fragment) [Peptide 119] | 16 | 10 | 33.3 | 20.8 | reactivity with T cells | – | –
4 | AIKLTSSAGVLSCRP (Amb a 1 fragment) [Peptide 119-120] | – | – | – | – | reactivity with T cells | – | –
5 | AKGTYGGKWGDV (Amb a 1 fragment) [Peptide 18] | 1 | 0 | 2.1 | 0.0 | – | – | –
6 | ALADCAQGFAKG (Amb a 1 fragment) [Peptide 15] | 4 | 2 | 8.3 | 4.2 | – | – | –
7 | AWNWRSDKDLLE (Amb a 1 fragment) [Peptide 105] | 4 | 3 | 8.3 | 6.3 | – | – | –
8 | CKFTQQSKAILL (Amb a 1 fragment) [Peptide 71] | 4 | 2 | 8.3 | 4.2 | – | – | –
9 | CSLSKSFDGLVD (Amb a 1 fragment) [Peptide 63] | 2 | 2 | 4.2 | 4.2 | – | – | –
10 | DCAQGFAKGTYG (Amb a 1 fragment) [Peptide 16] | 2 | 0 | 4.2 | 0.0 | – | – | –
11 | DGPPILRQASDG (Amb a 1 fragment) [Peptide 54] | 4 | 2 | 8.3 | 4.2 | – | – | –
12 | DKCWRGKADWEN (Amb a 1 fragment) [Peptide 10] | 2 | 2 | 4.2 | 4.2 | – | – | –
13 | DKDLLENGAIFV (Amb a 1 fragment) [Peptide 107] | 30 | 27 | 62.5 | 56.3 | reactivity with T cells | – | –
14 | DKDLLENGAIFVTSG (Amb a 1 fragment) [Peptide 107-108] | – | – | – | – | reactivity with T cells | recognized by 56.3% | –
15 | DKDLLENGAIFVTSGSDPVLTPVQ (Amb a 1 fragment) [Peptide 107-111] | – | – | – | – | reactivity with T cells | – | –
16 | DTHVQDKGMLAT (Amb a 1 fragment) [Peptide 76] | 4 | 1 | 8.3 | 2.1 | – | – | –

Row | Sequence | No. positive patients SI > 3 | No. positive patients SI > 5 | % (positive patients SI > 3) [%] | % (positive patients SI > 5) [%] | reactivity with T cells isolated from allergic individuals | T cell activating region recognized by % of patients | T cell reactivity with samples from individuals suffering from ragweed pollen allergy
17 | DTINVAGSSQIW (Amb a 1 fragment) [Peptide 58] | 3 | 1 | 6.3 | 2.1 | – | – | –
18 | DVANPKEGTLRF (Amb a 1 fragment) [Peptide 25] | 2 | 0 | 4.2 | 0.0 | – | – | –
19 | EAYNIIDKCWRG (Amb a 1 fragment) [Peptide 8] | 3 | 1 | 6.3 | 2.1 | – | – | –
20 | EGTLRFAAAQNR (Amb a 1 fragment) [Peptide 27] | 5 | 5 | 10.4 | 10.4 | reactivity with T cells | – | –
21 | EGTLRFAAAQNRPLW (Amb a 1 fragment) [Peptide 27-28] | – | – | – | – | reactivity with T cells | recognized by 22.9% | –
22 | EIINGGLTLMNV (Amb a 1 fragment) [Peptide 42] | 11 | 5 | 22.9 | 10.4 | reactivity with T cells | recognized by 10.4% | –
23 | EILPSVNETRSL (Amb a 1 fragment) [Peptide 3] | 1 | 0 | 2.1 | 0.0 | – | – | –
24 | ESMAWNWRSDKD (Amb a 1 fragment) [Peptide 104] | 2 | 1 | 4.2 | 2.1 | – | – | –
25 | FDGLVDVTLGST (Amb a 1 fragment) [Peptide 65] | 2 | 1 | 4.2 | 2.1 | – | – | –
26 | FGFFQVVNNNYD (Amb a 1 fragment) [Peptide 86] | 12 | 10 | 25.0 | 20.8 | reactivity with T cells | recognized by 20.6% | high T cell reactivity
27 | FLAPDDQIKKNV (Amb a 1 fragment) [Peptide 97] | 6 | 4 | 12.5 | 8.3 | reactivity with T cells | – | –
28 | FQVVNNNYDRWG (Amb a 1 fragment) [Peptide 87] | 5 | 2 | 10.4 | 4.2 | reactivity with T cells | – | –
29 | GAAESMAWNWRS (Amb a 1 fragment) [Peptide 103] | 2 | 1 | 4.2 | 2.1 | – | – | –
30 | GADDTHVQDKGM (Amb a 1 fragment) [Peptide 75] | 1 | 1 | 2.1 | 2.1 | – | – | –
31 | GDVYTVTSNLDD (Amb a 1 fragment) [Peptide 21] | 2 | 1 | 4.2 | 2.1 | – | – | –
32 | GEAAIKLTSSAG (Amb a 1 fragment) [Peptide 118] | 10 | 8 | 20.8 | 16.7 | reactivity with T cells | – | –

From patent US9360486B2, “Allergen fragments” (Biomay AG, priority 2007, dated 2016)
